In this assay the target is recombinant human ACC1 (rhACC1) (Homo sapiens (Human), UniProt Q13085). As to the kind of experiment: Transcreener ADP detection FP assay, direct inhibition of rhACC1. The format is biochemical. The following applies: Geomean IC50, n ≥ 2 unless * then n = 1; 50 μM ATP, 30 μM acetyl-CoA. On the procedure:
The direct inhibition of ACC1 for the compounds of the present invention was determined using preparations of recombinant human ACC1 (rhACC1) (SEQ ID NO. 1)
Two liters of SF9 cells, infected with recombinant baculovirus containing full length human ACC1 cDNA, were suspended in ice-cold lysis buffer (25 mM Tris, pH 7.5; 150 mM NaCl; 10% glycerol; 5 mM imidazole (EMD Bioscience; Gibbstown, NJ); 2 mM TCEP (BioVectra; Charlottetown, Canada); Benzonase nuclease (10000 U/100 g cell paste; Novagen; Madison, WI); EDTA-free protease inhibitor cocktail (1 tab/50 ml; Roche Diagnostics; Mannheim, Germany). Cells were lysed by 3 cycles of freeze-thaw and centrifuged at 40,000×g for 40 minutes (4° C.). Supernatant was directly loaded onto a HisTrap FF crude column (GE Healthcare; Piscataway, NJ) and eluted with an imidazole gradient up to 0.5 M over 20 column volumes (CV). ACC1-containing fractions were pooled and diluted 1:5 with 25 mM Tris, pH 7.5, 2 mM TCEP, 10% glycerol and direct loaded onto a CaptoQ (GE Healthcare) column and eluted with an NaCl gradient up to 1 M over 20 CV's. Phosphate groups were removed from purified ACC1 by incubation with lambda phosphatase (100 U/10 μM target protein; New England Biolabs; Beverly, MA) for 14 hours at 4° C.; okadaic acid was added (1 μM final concentration; Roche Diagnostics) to inhibit the phosphatase. Purified ACC1 was exchanged into 25 mM Tris, pH 7.5, 2 mM TCEP, 10% glycerol, 0.5 M NaCl by 6 hour dialysis at 4° C. Aliquots were prepared and frozen at −80° C.
Measurement of rhACC1 Inhibition rhACC1 was assayed in a Corning #3820 (Corning, Tewksbury, MA) 384-well plate using the Transcreener ADP detection FP assay kit (Bellbrook Labs, Madison, Wisconsin) using the manufacturer's recommended conditions for a 50 μM ATP reaction. The final conditions for the assay were 50 mM HEPES, pH 7.2, 10 mM MgCl2, 7.5 mM tripotassium citrate, 2 mM DTT, 0.1 mg/mL BSA, 30 μM acetyl-CoA, 50 μM ATP, and 10 mM KHCO3. Typically, a […] was run for 60 min at room temp, and 10 μl of Transcreener stop and detect buffer was added and the combination incubated at room temp for an overnight (18 hours). The data was acquired on an Envision Fluorescence reader (PerkinElmer) using a 620 excitation Cy5 FP general dual mirror, 620 excitation Cy5 FP filter, 688 emission (S) and a 688 (P) emission filter.
For the compound “2-(tert-butyl)-1′-(4-chloro-5-methoxy-1H-indole-7-carbonyl)-5H-spiro[benzo[d]thiazole-6,4′-piperidin]-4(7H)-one [Example 37]”, the IC50 stood at 1.3 nM.

On to `CCOc1cc(C(=O)N2CCC3(CC2)Cc2sc(C(C)(C)C)nc2C(O)C3)cc2c(C)nn(C)c12` (racemic) [Example 109, rac-(R)-(2-(tert-butyl)-4-hydroxy-4,7-dihydro-5H-spiro[benzo[d]thiazole-6,4′-piperidin]-1′-yl)(7-ethoxy-1,3-dimethyl-1H-indazol-5-yl)methanone], for which the IC50 is 23.2 nM.

For `Cc1n[nH]c2c(C)cc(C(=O)N3CCC4(CC3)CC(=O)c3nc(C5(C)CC5)sc3C4)cc12` [Example 1, 1′-(3,7-dimethyl-2H-indazole-5-carbonyl)-2-(1-methylcyclopropyl)-5H-spiro[benzo[d]thiazole-6,4′-piperidin]-4(7H)-one], the IC50 amounted to 10.6 nM.

Regarding `Cc1n[nH]c2c(C)cc(C(=O)N3CCC4(CC3)CC(=O)c3nc(C(C)(C)C(C)C)sc3C4)cc12` [Example 3, 1′-(3,7-dimethyl-1H-indazole-5-carbonyl)-2-(2,3-dimethylbutan-2-yl)-5H-spiro[benzo[d]thiazole-6,4′-piperidin]-4(7H)-one], the IC50 came out at 7.9 nM.

In the case of `CCc1nc2c(s1)CC1(CCN(C(=O)c3cc(C)c4[nH]nc(C)c4c3)CC1)CC2=O` [Example 6, 1′-(3,7-dimethyl-1H-indazole-5-carbonyl)-2-ethyl-5H-spiro[benzo[d]thiazole-6,4′-piperidin]-4(7H)-one], the IC50 was 45.5 nM.

Turning to `Cc1n[nH]c2c(C)cc(C(=O)N3CCC4(CC3)CC(=O)c3nc(C56CC(C5)C6)sc3C4)cc12` [Example 7, 2-(bicyclo[1.1.1]pentan-1-yl)-1′-(3,7-dimethyl-1H-indazole-5-carbonyl)-5H-spiro[benzo[d]thiazole-6,4′-piperidin]-4(7H)-one], the IC50 was determined as 11 nM.

`CNc1ccc2c(C)cc(C(=O)N3CCC4(CC3)CC(=O)c3nc(C(C)C)sc3C4)cc2n1` [Example 8, 2-isopropyl-1′-(5-methyl-2-(methylamino)quinoline-7-carbonyl)-5H-spiro[benzo[d]thiazole-6,4′-piperidin]-4(7H)-one]: the IC50 turned out to be 5.5 nM.

As to `CNc1ccc2c(C)cc(C(=O)N3CCC4(CC3)CC(=O)c3nc(C5(C)CC5)sc3C4)cc2n1` [Example 9, 1′-(5-methyl-2-(methylamino)quinoline-7-carbonyl)-2-(1-methylcyclopropyl)-5H-spiro[benzo[d]thiazole-6,4′-piperidin]-4(7H)-one], the IC50 was 13.4 nM.

For the compound `COc1cc(C(=O)N2CCC3(CC2)CC(=O)c2nc(C(C)C)sc2C3)cc2c(C)nn(C)c12` [Example 10, 2-isopropyl-1′-(7-methoxy-1,3-dimethyl-1H-indazole-5-carbonyl)-5H-spiro[benzo[d]thiazole-6,4′-piperidin]-4(7H)-one], the IC50 was 10 nM.

For `COc1cc(C(=O)N2CCC3(CC2)CC(=O)c2nc(C4(C)CC4)sc2C3)cc2c(C)nn(C)c12` [Example 11, 1′-(7-methoxy-1,3-dimethyl-1H-indazole-5-carbonyl)-2-(1-methylcyclopropyl)-5H-spiro[benzo[d]thiazole-6,4′-piperidin]-4(7H)-one], the IC50 is 4.5 nM.

In the case of `[2H]C([2H])([2H])C(c1nc2c(s1)CC1(CCN(C(=O)c3cc(OC)c4c(c3)c(C)nn4C)CC1)CC2=O)(C([2H])([2H])[2H])C([2H])([2H])[2H]` [Example 12, 1′-(7-methoxy-1,3-dimethyl-1H-indazole-5-carbonyl)-2-(2-(methyl-d3)propan-2-yl-1,1,1,3,3,3-d6)-5H-spiro[benzo[d]thiazole-6,4′-piperidin]-4(7H)-one], the IC50 came out at 5.2 nM.

Regarding `CCNc1cnc2c(C)cc(C(=O)N3CCC4(CC3)CC(=O)c3nc(C(C)(C)C)sc3C4)cc2c1` [Example 18, 2-(tert-butyl)-1′-(3-(ethylamino)-8-methylquinoline-6-carbonyl)-5H-spiro[benzo[d]thiazole-6,4′-piperidin]-4(7H)-one], the IC50 is 3.2 nM.

As for `CCOc1cnc2c(C)cc(C(=O)N3CCC4(CC3)CC(=O)c3nc(C(C)(C)C)sc3C4)cc2c1` [Example 20, 2-(tert-butyl)-1′-(3-ethoxy-8-methylquinoline-6-carbonyl)-5H-spiro[benzo[d]thiazole-6,4′-piperidin]-4(7H)-one], the IC50 came out at 30.1 nM.

Consider `CSc1cnc2c(C)cc(C(=O)N3CCC4(CC3)CC(=O)c3nc(C(C)(C)C)sc3C4)cc2c1` [Example 21, 2-(tert-butyl)-1′-(8-methyl-3-(methylthio)quinoline-6-carbonyl)-5H-spiro[benzo[d]thiazole-6,4′-piperidin]-4(7H)-one], for which the IC50 was 3.6 nM.

As for `CN(C)c1cc(C(=O)N2CCC3(CC2)CC(=O)c2nc(C(C)(C)C)sc2C3)cc(-c2ccc(C(N)=O)cc2)n1` [Example 22, 4-(4-(2-(tert-butyl)-4-oxo-4,7-dihydro-5H-spiro[benzo[d]thiazole-6,4′-piperidine]-1′-carbonyl)-6-(dimethylamino)pyridin-2-yl)benzamide], the IC50 came out at 0.9 nM.

On to `COc1cc(C(=O)N2CCC3(CC2)CC(=O)c2nc(C(C)(C)C)sc2C3)cc(-c2ccc(C(N)=O)cc2)n1` [Example 23, 4-(4-(2-(tert-butyl)-4-oxo-4,7-dihydro-5H-spiro[benzo[d]thiazole-6,4′-piperidine]-1′-carbonyl)-6-methoxypyridin-2-yl)benzamide], for which the IC50 worked out at 7.2 nM.

`CNc1nccc2c(C)cc(C(=O)N3CCC4(CC3)CC(=O)c3nc(C(C)(C)C)sc3C4)cc12` [Example 24, 2-(tert-butyl)-1′-(5-methyl-1-(methylamino)isoquinoline-7-carbonyl)-5H-spiro[benzo[d]thiazole-6,4′-piperidin]-4(7H)-one]: the IC50 came out at 3.1 nM.

As for `Cc1cc(C(=O)N2CCC3(CC2)CC(=O)c2nc(C(C)(C)C)sc2C3)cc2c(C3CC3)nccc12` [Example 25, 2-(tert-butyl)-1′-(1-cyclopropyl-5-methylisoquinoline-7-carbonyl)-5H-spiro[benzo[d]thiazole-6,4′-piperidin]-4(7H)-one], the IC50 amounted to 6.6 nM.

Turning to `Cc1cnc(C)c2cc(C(=O)N3CCC4(CC3)CC(=O)c3nc(C(C)(C)C)sc3C4)ccc12` [Example 27, 2-(tert-butyl)-1′-(1,4-dimethylisoquinoline-7-carbonyl)-5H-spiro[benzo[d]thiazole-6,4′-piperidin]-4(7H)-one], the IC50 worked out at 29.5 nM.

As to `COc1cc(C(=O)N2CCC3(CC2)CC(=O)c2nc(C(C)(C)C)sc2C3)cc2c(C)nccc12` [Example 28, 2-(tert-butyl)-1′-(5-methoxy-1-methylisoquinoline-7-carbonyl)-5H-spiro[benzo[d]thiazole-6,4′-piperidin]-4(7H)-one], the IC50 is 6.2 nM.

With `CCc1nccc2c(OC)cc(C(=O)N3CCC4(CC3)CC(=O)c3nc(C(C)(C)C)sc3C4)cc12` [Example 29, 2-(tert-butyl)-1′-(1-ethyl-5-methoxyisoquinoline-7-carbonyl)-5H-spiro[benzo[d]thiazole-6,4′-piperidin]-4(7H)-one], the IC50 turned out to be 11.1 nM.

For `CC(C)Nc1ccc2ccc(C(=O)N3CCC4(CC3)CC(=O)c3nc(C(C)(C)C)sc3C4)cc2n1` [Example 30, 2-(tert-butyl)-1′-(2-(isopropylamino)quinoline-7-carbonyl)-5H-spiro[benzo[d]thiazole-6,4′-piperidin]-4(7H)-one], the IC50 came out at 4.6 nM.

With `CC(C)(C)c1nc2c(s1)CC1(CCN(C(=O)c3ccc4ccc(NC5CCC5)nc4c3)CC1)CC2=O` [Example 31, 2-(tert-butyl)-1′-(2-(cyclobutylamino)quinoline-7-carbonyl)-5H-spiro[benzo[d]thiazole-6,4′-piperidin]-4(7H)-one], the IC50 was determined as 4 nM.

Take `CCNc1ccc2ccc(C(=O)N3CCC4(CC3)CC(=O)c3nc(C(C)(C)C)sc3C4)cc2n1` [Example 32, 2-(tert-butyl)-1′-(2-(ethylamino)quinoline-7-carbonyl)-5H-spiro[benzo[d]thiazole-6,4′-piperidin]-4(7H)-one]: the half-maximal inhibitory concentration (IC50) was determined as 3.5 nM.

`Cc1cc(C(=O)N2CCC3(CC2)CC(=O)c2nc(C(C)(C)C)sc2C3)c2[nH]ncc2c1Cl` [Example 34, 2-(tert-butyl)-1′-(4-chloro-5-methyl-1H-indazole-7-carbonyl)-5H-spiro[benzo[d]thiazole-6,4′-piperidin]-4(7H)-one]: the IC50 came out at 1.3 nM.

The values are drawn from patent US20240109915A1, “NOVEL ACC INHIBITORS” (Pfizer Inc., priority 2022, published 2024).
